The numbers were not newly measured in US20230076527A1, “TREATMENT OF PAROXYSMAL NOCTURNAL HEMOGLOBINURIA” (Apellis Pharmaceuticals, Inc., priority 2020, published 2023), which cites them from elsewhere.

The test system of the series is complement activation. The following applies: relative to compstatin amidated at the C-terminus; published data; cited from earlier work.
As for “Ac-ICV(2-Nal)QDWGAHRCT-COOH (N-acetyl, 2-Nal) [Ac V4(2-Nal)/H9A -OH]”, the Activity over compstatin is recorded as 38xmore.

For “Ac-ICVWQD(5fW)GAHRCT-CONH2 [Ac-V4W/W7(5fW)/H9A]”, the Activity over compstatin is reported as 121xmore.

For the substance “Ac-ICV(2-Igl)QDWGAHRCT-COOH (N-acetyl, 2-Igl) [Ac-V42Igl/H9A -OH]”, the Activity over compstatin was 37xmore.

As for “Ac-ICVWQDWGAHRCT-CONH2 (Ac-ICVWQDWGAHRCT-NH2; cysteine pairing not given here) [Ac-V4W/H9A]”, the Activity over compstatin is on record as 45xmore.

For Ac-ICVYQDWGAHRCT-CONH2 [AC-V4Y/H9A], the Activity over compstatin was 14xmore.

Regarding “Ac-1CV(2-Igl)QDWGAHRCT-CONH2 [Ac-V42Igl/H9A]”, the Activity over compstatin is recorded as 39xmore.

With “Ac-ICV(1-Nal)QDWGAHRCT-COOH (N-acetyl, 1-Nal) [Ac V4(1-Nal)/H9A -OH]”, the Activity over compstatin is 30xmore.

As to “Ac-ICVWQDWGAHRCdT-COOH [AC-V4W/H9A/T13dT -OH]”, the Activity over compstatin is listed as 55xmore.

For the substance “Ac-ICV(Bpa)QDWGAHRCT-COOH (N-acetyl, Bpa) [Ac-V4(Bpa)/H9A -OH]”, the Activity over compstatin is on record as 49xmore.

With “Ac-ICV(2-Nal)QDWGAHRCT-CONH2 (N-acetyl, C-amide, 2-Nal) [Ac-V4(2-Nal)/H9A]”, the Activity over compstatin is reported as 99xmore.

As for “Ac-ICV(Bpa)QDWGAHRCT-CONH2 (N-acetyl, C-amide, Bpa) [Ac-V4(Bpa)/H9A]”, the Activity over compstatin is 86xmore.

As for “Ac-ICVDhtQDWGAHRCT-COOH [Ac-V4Dht/H9A -OH]”, the Activity over compstatin is 5xmore.

With “H-GICV(6fW)QD(6fW)GAHRCTN-COOH (6-fluoro-Trp) [+G/V4(6fW)/W7(6fW)H9A+N -OH]”, the Activity over compstatin is 126xmore.

Regarding Ac-ICVVQDWGHHRCT-CONH2 [Ac-compstatin], the Activity over compstatin was 3xmore.
